Several values for one entry are separate records, joined by “and”; a condition that tells them apart may be missing. Equal entries are not always repeated. Where two headings read alike, the source gives them in different places.
Tests used:
[1] = tested on: HIV-1 (HIV-1 RF, HIV-1 NL4-3) in CEM-SS / MT-2 cells; assay: Cytopathic effect (CPE) inhibition assay (XTT/MTT dye reduction); assay type: cell-based
How it was run: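 CEM-SS or MT-2 cells were infected with HIV-1 RF or NL4-3 (moi 0.025–0.819) and plated at 2×10^4 cells/well with half-log compound dilutions for 6 days. Viability was read by XTT formazan at 450 nm after 4 h. EC50 restores formazan to 50% of uninfected untreated cells, CC50 halves it in uninfected cells, and TI = CC50/EC50.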

[2] = target: T1, HIV-1 protease (Q7S mutant form) (Human immunodeficiency virus type 1 group M subtype B, UniProt P04585, Q495S); assay: HIV-1 Protease RET assay; assay type: biochemical
T1 construct: made in house
How it was run: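 Q7S HIV-1 protease, refolded from urea, 2 nM active dimer with 5 μM EDANS/DABCYL peptide cleaved at Tyr-Pro; fluorescence 340/490 nm. 12 min at 37 °C in 0.1M sodium acetate pH 4.8, 1M NaCl, 10% DMSO. Ki from Morrison tight-binding fit.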

[3] = tested on: HIV-1 NL4-3 or HIV-1 NL4-3(I84V/L90M); assay: Susceptibility assay, p24 ELISA in infected MT-2 cells; assay type: cell-based; details: Human immunodeficiency virus 1, NL43, MT2, read-out: EC50 or IC50 (mM), values without asterisk (EC50)
Description: T-cell lines, CEM-SS, and MT-2, and viruses HIV-1 RF and HIV-1 NL4-3 (pNL4-3) were obtained from the National Institutes of Health (AIDS Research and Reference Reagent Program, Bethesda, Md.).
Compounds were tested in phenotypic susceptibility assays at Virologic, Inc., (See Petropoulos C. J., Parkin N. T., Limoli K. L., Lie Y. S., Wrin T., Huang W., Tian H., Smith D., Winslow G. A., Capon D J, Whitcomb J M. 2000, “A novel phenotypic drug susceptibility assay for human immunodeficiency virus type 1,” Antimicrob Agents Chemother 44(4):920–928) or using the assay described here. MT-2 cells were infected with either HIV-1 NL4-3 or HIV-1 NL4-3([…]) and incubated in the presence of serial 0.5 log dilutions of test compounds. Three days later, culture supernatants were collected and virus production, as determined by p24 ELISA, was assayed. Percent inhibition was calculated as p24 concentration in compound-treated samples as compared to infected, compound-free controls. Inhibition of viral replication is determined by measuring reduction in HIV p24 present in the culture supernatant, using a Beckman-Coulter p24HIV-1 Ag EIA kit and following the supplied protocol. Absorbance is read on a MRX microplate reader (Dynex Technologies). The EC50 was calculated as the concentration of compound that effected a decrease in the p24 production by infected, compound-treated cells to 50% of that produced by infected, compound-free cells.

[4] = Human immunodeficiency virus 1, NL43, read-out: Ave CPE EC50
[5] = Ave. Ki (nM), RET assay, Q7S enzyme, Morrison tight binding fit

| SMILES | EC50 [1, 4] | Ki [2, 5] | EC50 [3] | EC50 ([1]; unit inferred, read-out: EC50) | Ki ([2]; Ki, unit inferred) |
| --- | --- | --- | --- | --- | --- |
| Cc1c(O)cccc1C(=O)N[C@@H](Cc1ccccc1)[C@H](O)C(=O)N1CSC(C)(C)[C@H]1C(=O)N[C@H]1CCCc2occc21 (stereo in doubt) [Example A48, 3-[2-Hydroxy-3-(3-hydroxy-2-methyl-benzoylamino)-4-phenyl-butyryl]-5,5-dimethyl-thiazolidine-4-carboxylic acid (4,5,6,7-tetrahydro-benzofuran-4-yl)-amide] | 37 nM | < 0.1 nM | 92 nM |  |  |
| Cc1c(O)cccc1C(=O)N[C@@H](Cc1ccccc1)[C@H](O)C(=O)N1CSC2(CCCC2)C1C(=O)N[C@@H]1C=CCCC1 (stereo in doubt) [Example C35, (S)-3-((2S,3S)-2-Hydroxy-3-{[1-(3-hydroxy-2-methyl-phenyl)-methanoyl]-amino}-4-phenyl-butanoyl)-1-thia-3-aza-spiro[4.4]nonane-4-carboxylic acid (S)-cyclohex-2-enylamide] | 3 nM | < 0.1 nM | 289 nM |  |  |
| Cc1ccccc1CNC(=O)[C@@H]1CC(F)(F)CN1C(=O)[C@@H](O)[C@H](Cc1ccccc1)NC(=O)COc1c(C)cccc1C (stereo in doubt) [Example C40, 1-{3-[2-(2,6-Dimethyl-phenoxy)-acetylamino]-2-hydroxy-4-phenyl-butyryl}-4,4-difluoro-pyrrolidine-2-carboxylic acid 2-methyl-benzylamide] |  | 1.8 nM and 0.82 nM | 1800 nM |  |  |
| Cc1c(O)cccc1C(=O)N[C@@H](Cc1ccccc1)[C@H](O)C(=O)N1CSC(C)(C)[C@H]1C(=O)NCc1ccc2c(c1)CCO2 [Example A9, (R)-3-((2S,3S)-2-Hydroxy-3-{[1-(3-hydroxy-2-methyl-phenyl)-methanoyl]-amino}-4-phenyl-butanoyl)-5,5-dimethyl-thiazolidine-4-carboxylic acid (2,3-dihydro-benzofuran-5-ylmethyl)-amide] | 138 nM | 0.49 nM | 1080 nM |  |  |
| Cc1ccncc1CNC(=O)[C@H]1N(C(=O)[C@@H](O)[C@H](Cc2ccccc2)NC(=O)c2cccc(O)c2C)CSC1(C)C [Example A22, 3-(2-Hydroxy-3-{[1-(3-hydroxy-2-methyl-phenyl)-methanoyl]-amino}-4-phenyl-butanoyl)-5,5-dimethyl-thiazolidine-4-carboxylic acid-(4-methyl-pyridin-3-ylmethyl)amide] | 138 nM | < 0.1 nM | 318 nM |  |  |
| Cc1c(O)cccc1C(=O)N[C@@H](Cc1ccccc1)[C@H](O)C(=O)N1CSC(C)(C)[C@H]1C(=O)NCC1=CCCC1 [Example A39, (R)-3-((2S,3S)-2-Hydroxy-3-{[1-(3-hydroxy-2-methyl-phenyl)-methanoyl]-amino}-4-phenyl-butanoyl)-5,5-dimethyl-thiazolidine-4-carboxylic acid (cyclopent-1-enylmethyl)-amide] | 123 nM | < 0.1 nM | 213 nM |  |  |
| Cc1c(O)cccc1C(=O)N[C@@H](Cc1ccccc1)[C@H](O)C(=O)N1CSC(C)(C)[C@H]1C(=O)NCc1ccsc1 [Example A40, (R)-3-((2S,3S)-2-Hydroxy-3-{[1-(3-hydroxy-2-methyl-phenyl)-methanoyl]-amino}-4-phenyl-butanoyl)-5,5-dimethyl-thiazolidine-4-carboxylic acid (thiophen-3-ylmethyl)-amide] | 40 nM | < 0.1 nM | 109 nM |  |  |
| Cc1c(O)cccc1C(=O)N[C@@H](Cc1ccccc1)[C@H](O)C(=O)N1CSC(C)(C)[C@H]1C(=O)NCc1nccs1 [Example A41, (R)-3-((2S,3S)-2-Hydroxy-3-{[1-(3-hydroxy-2-methyl-phenyl)-methanoyl]-amino}-4-phenyl-butanoyl)-5,5-dimethyl-thiazolidine-4-carboxylic acid (thiazol-2-ylmethyl)-amide] | 145 nM | 0.17 nM | 242 nM |  |  |
| Cc1c(O)cccc1C(=O)N[C@@H](Cc1ccccc1)[C@H](O)C(=O)N1CSC(C)(C)[C@H]1C(=O)N[C@H]1CCCc2ncccc21 [Example A42, 3-[2-Hydroxy-3-(3-hydroxy-2-methyl-benzoylamino)-4-phenyl-butyryl]-5,5-dimethyl-thiazolidine-4-carboxylic acid (5,6,7,8-tetrahydro-quinolin-5-yl)-amide] | 65 nM | < 0.1 nM | 98 nM |  |  |
| Cc1c(O)cccc1C(=O)N[C@@H](Cc1ccccc1)[C@H](O)C(=O)N1CSC(C)(C)[C@H]1C(=O)NCc1ccoc1 [Example A45, (R)-3-((2S,3S)-2-Hydroxy-3-{[1-(3-hydroxy-2-methyl-phenyl)-methanoyl]-amino}-4-phenyl-butanoyl)-5,5-dimethyl-thiazolidine-4-carboxylic acid (furan-3-ylmethyl)-amide] | 34 nM | < 0.1 nM | 48 nM |  |  |
| CCCNC(=O)[C@@H]1CC(F)(F)CN1C(=O)[C@@H](O)[C@H](Cc1ccccc1)NC(=O)COc1c(C)cccc1C [Example C45, 1-{3-[2-(2,6-Dimethyl-phenoxy)-acetylamino]-2-hydroxy-4-phenyl-butyryl}-4,4-difluoro-pyrrolidine-2-carboxylic acid propylamide] | 1580 nM | 3.6 nM |  |  |  |
| Cc1ccccc1CNC(=O)[C@H]1N(C(=O)[C@@H](O)[C@H](Cc2ccccc2)NC(=O)COc2c(C)cccc2C)CC(F)(F)C1(C)C [Example C46, (S)-1-{(2S,3S)-3-[2-(2,6-Dimethyl-phenoxy)-acetylamino]-2-hydroxy-4-phenyl-butyryl}-4,4-difluoro-3,3-dimethyl-pyrrolidine-2-carboxylic acid 2-methyl-benzylamide] | 407 nM | < 0.1 nM |  |  |  |
| Cc1ccccc1CNC(=O)[C@H]1N(C(=O)[C@@H](O)[C@H](Cc2ccccc2)NC(=O)O[C@H]2CCOC2)COC1(C)C [Example C47, {(1S,2S)-1-Benzyl-3-[(S)-5,5-dimethyl-4-(2-methyl-benzylcarbamoyl)-oxazolidin-3-yl]-2-hydroxy-3-oxo-propyl}-carbamic acid (S)-(tetrahydro-furan-3-yl)ester] | 1380 nM | 1.4 nM |  |  |  |
| Cc1ccccc1CNC(=O)[C@H]1N(C(=O)[C@@H](O)[C@H](Cc2ccccc2)NC(=O)c2cccc(O)c2C)CC(=O)C1(C)C [Example C48, 1-[2-Hydroxy-3-(3-hydroxy-2-methyl-benzoylamino)-4-phenyl-butyryl]-3,3-dimethyl-4-oxo-pyrrolidine-2-carboxylic acid 2-methyl-benzylamide] | 128 nM | < 0.1 nM |  |  |  |
| Cc1ccccc1CNC(=O)[C@@H]1C2CCC(C2)N1C(=O)[C@@H](O)[C@H](Cc1ccccc1)NC(=O)c1cccc(O)c1C (some centres unmarked) [Example C50, 2-(2-Hydroxy-3-{[1-(-hydroxy-2-methyl-phenyl)-methanoyl]-amino}-4-phenyl-butanoyl)-2-aza-bicyclo[2.2.1]-heptane-3-carboxylic acid-2-methyl-benzylamide] | 997 nM | 7.9 nM |  |  |  |
| CCCNC(=O)[C@H]1N(C(=O)[C@@H](O)[C@H](Cc2ccccc2)NC(=O)c2cc(C)cc(O)c2C)CC(F)(F)C1(C)C [Example D4, (S)-4,4-Difluoro-1-[(2S,3S)-2-hydroxy-3-(3-hydroxy-2,5-dimethyl-benzoylamino)-4-phenyl-butyryl]-3,3-dimethyl-pyrrolidine-2-carboxylic acid propylamide] | 9 nM | < 0.1 nM |  |  |  |
| Cc1cc(O)c(C)c(C(=O)N[C@@H](Cc2ccccc2)[C@H](O)C(=O)N2CC(F)(F)C(C)(C)[C@H]2C(=O)NCC(C)C)c1 [Example D5, (S)-4,4-Difluoro-1-[(2S,3S)-2-hydroxy-3-(3-hydroxy-2,5-dimethyl-benzoylamino)-4-phenyl-butyryl]-3,3-dimethyl-pyrrolidine-2-carboxylic acid isobutyl-amide] | 11 nM | < 0.1 nM |  |  |  |
| Cc1ccccc1CNC(=O)C1N(C(=O)[C@@H](O)[C@H](CSc2ccccc2)NC(=O)c2cccc(O)c2C)CSC1(C)C (some centres unmarked) [drawing 934] |  |  |  | 27 nM | ≤ 0.1 nM |
| Cc1ccccc1CNC(=O)C1N(C(=O)[C@@H](O)[C@H](CSc2ccccc2)NC(=O)c2cccc(O)c2C)CSC1(C)C (some centres unmarked) [drawing 969] |  |  |  | 879 nM | 0.25 nM |

From US7094909B2, “HIV protease inhibitors, compositions containing the same, their pharmaceutical uses and materials for their synthesis” (priority 2001, dated 2006)
